Laboratory results taken from patent US8361992B2 (Dekk-Tec, Inc., priority 2009, dated 2013).
Read-outs that look alike come from different tables or passages of the source.

Tests used:
9 L rat glioma cells = test: Activity in vitro against 9L rat glioma cells in culture; assay type: cell-based; details: for IC50: dose range 0.1-1.00 μg/ml
Description: The IC50 for each compound and also ifosfamide was determined (Table 3).

Rat glioma 9 L cells = test: 9L rat glioma implanted subcutaneously in rats; details: doses as in Table 7
Description: Rat glioma 9 L cells (10^6 cells) were implanted subcutaneously in female Hsd:SD rats. […] Temozolomide (TMZ) was administered orally three times, four days apart. The rats were followed for 54 days.

[1] = tested on: Sprague Dawley female rats; test: Rat neurobehavioral modified Morris water maze and pathology; assay type: in vivo; details: for Pathology five days later (gross, confirmed by histology) / Memory and learning time intervals: single IP dose: IFOS 400, 4-HOOI 200, 4-HOOI.Lys 300 mg/kg; for Memory and learning time intervals: 1, 2, 3, 20 hours post-dosing
Description: Rat Dosing: Neuro-oncology studies with 4-HOOI were conducted to evaluate the product as compared to ifosfamide in a rat neurobehavioral modified Morris water maze. Ifosfamide produces coma and neuro-edema in high doses. […] Timings (six at each time) were measured at 1, 2, 3, and 20 hours post-dosing to monitor learning and memory. […] Histological examinations confirmed the gross observations.

[2] = Stability profile of bulk 4-HOOI vs. 4-HOOI.Lys (HPLC, NMR)
[3] = tested on: Human glioblastoma cell line U251; details: cited from earlier work
[4] = for AUC values for acrolein (trapezoidal rule): 0-120, IV CPA 250, IFOS 400, 4-HOOI 100 mg/kg
Description: Half of each plasma sample was lyophilized to collect ACR in a dry ice/methanol-cooled trap. […] For chloroacetaldehyde, the other half of the plasma sample was treated directly with the above trapping agent and the same procedure was used (6 mins) compared with synthetic controls.

[5] = tested on: Human breast cancer cell line MX-1; test: MX-1 xenograft implanted SC in mice; assay type: in vivo; details: IP once per day for 5 days; for MX-1 T-C: 4-HOOI 90, IFOS 40, IPM 40 mg/kg/day
Description: (§2) Human breast cancer cell lines MX-1 and ZR75-1 were implanted subcutaneously (SC). Human glioblastoma cell line U251 was implanted intracranially (IC) and P388 CPA-resistant murine leukemia cell line was injected intraperitoneally (IP). For IC implanted tumor cells, treatment was begun 5-7 days post-inoculation. For SC tumors, treatment was begun when the tumor was palpable (5-10 days post-inoculation). Mice were treated with the indicated dose of drug intraperitoneally once per day for 5 days.

[6] = tested on: Human breast cancer cell line ZR75-1; test: ZR-75-1 xenograft implanted SC in mice; assay type: in vivo; details: IP once per day for 5 days, 4-HOOI 90, IFOS 40 mg/kg/day
Description: as §2

[7] = tested on: P388 CPA-resistant murine leukemia cell line; test: P388/CPA leukemia injected IP in mice; assay type: in vivo; details: IP once per day for 5 days, 4-HOOI 90, IFOS 40, IPM 40 mg/kg/day
Description: as §2

[8] = tested on: NCI-H69 Small cell lung carcinoma; test: NCI-H69 xenograft (sc); assay type: in vivo, human; details: sc implant; intraperitoneal treatment; MTD
Description: (§1) 4-HOOI was tested against a number of additional solid tumor xenografts and leukemias.

[9] = tested on: NCI-H23 Non-small cell lung carcinoma; test: NCI-H23 xenograft (sc); assay type: in vivo, human; details: sc implant; intraperitoneal treatment; MTD
Description: as §1

OVCAR-3 Ovarian = test: OVCAR-3 xenograft (sc); assay type: in vivo, human; details: sc implant; intraperitoneal treatment; MTD
Description: as §1

SAOS-2 Osteosarcoma = test: SAOS-2 xenograft (sc); assay type: in vivo, human; details: sc implant; intraperitoneal treatment; MTD
Description: as §1

SK-MEL-31 Melanoma = test: SK-MEL-31 xenograft (sc); assay type: in vivo, human; details: sc implant; intraperitoneal treatment; MTD
Description: as §1

mice = test: Mouse IV dosing toxicology; assay type: in vivo
Description: Specific emphasis was placed on documenting potential toxicities associated with IV administered peroxides, namely convulsions, hemolysis, arterial gas emboli-pulmonary damage, and neurological pathology.
Ranges of dosing were 60-400 mg/kg. […] Animals were monitored for 14 days post treatment.

[10] = tested on: Human glioblastoma cell line U251; test: U251 glioblastoma implanted intracranially in mice; details: in vivo
Description: as §2

humans = details: cited from earlier work

## NCCCCC(N)C(=O)O.O=P1(NCCCl)OCCC(OO)N1CCCl (stereo not shown) [4-HOOI•Lys]
9 L rat glioma cells
  Notes: Stabilized form prevented
  IC50: >1.0 µg/mL
Rat glioma 9 L cells; SC in female Hsd:SD rats, followed 54 days
  CR (animals): 9/9
Rat glioma 9 L cells; rats bearing 9L glioma
  Hematuria: No hematuria
  Weight loss: No weight loss
[1]
  Pathology five days later (gross, confirmed by histology): did not reveal hemorrhagic cystitis, renal tubular necrosis, or bone marrow depletion
  Memory and learning time intervals: no significant differences
[2]; Time 0
  NMR: Stable
[2]; Time 2 months
  NMR: Stable
[2]; Time 4 months
  NMR: Stable
[2]; Time 6.5 months
  NMR: Stable
[2]; Time 10 months
  NMR: Stable

## O=NN(CCCl)C(=O)NCCCl [BCNU, bis-chloronitrosourea]
[3]; gold standard for the treatment of gliomas
  ILS: 72 % ILS

## O=P1(N(CCCl)CCCl)NCCCO1 (stereo not shown) [CPA, cyclophosphamide]
[4]
  AUC values for acrolein (trapezoidal rule): 1520 mg·min/mL

## COc1nc(C(Cl)(Cl)Cl)c(Cl)c(OC(=O)O[C@H]2CC[C@@]3(C)C(=CC[C@H]4[C@@H]5CC[C@H]([C@H](C)CCCC(C)C)[C@@]5(C)CC[C@@H]43)C2)c1Cl [DM-CHOC-PEN, 4-demethylcholesteryloxycarbonylpenclomedine]
[3]; Morgan et al. 2009
  LTS in U251 glioblastoma: 52 % LTS

## O=P1(NCCCl)OCCCN1CCCl (stereo not shown) [IFOS, ifosfamide]
9 L rat glioma cells
  Notes: Inactive without
9 L rat glioma cells; Glioma cell, read-out: IC50
  IC50: > 1 µg/mL
[5]; 4-HOOI 90, IFOS 40 mg/kg/day
  MX-1 LTS (long term survivors): (No LTS)
[5]
  MX-1 T-C: 8.6 days
[6]
  ZR-75-1 CR (complete response): (17% CR)
  ZR-75-1 T-C: >43.8 days
[7]
  P388/CPA (% ILS): +42 % ILS
[8]
  T-C (Days Delay), NCI-H69: 6.2 days
[9]
  T-C (Days Delay), NCI-H23: 13.7 days
OVCAR-3 Ovarian
  T-C (Days Delay), OVCAR-3: 12.4 days
SAOS-2 Osteosarcoma
  T-C (Days Delay), SAOS-2: >61.9 days
SK-MEL-31 Melanoma
  T-C (Days Delay), SK-MEL-31: 10.9 days
Rat glioma 9 L cells; rats bearing 9L glioma
  Hematuria: observed
mice
  Highest tolerated single IV dose: 400 mg/kg
[1]; IFOS 400 mg/kg single IP dose
  Clinical signs: shakes and tremors
[1]; IFOS 400 mg/kg single IP dose, five days later
  Bone marrow evaluations: pancytopenia
[1]
  Pathology five days later (gross, confirmed by histology): hemorrhagic cystitis with gross bleeding
  Memory and learning time intervals: normal learning behavioral patterns
[4]
  AUC values for acrolein (trapezoidal rule): 960 mg·min/mL
[4]; mice
  Urinary hemorrhagic cystitis: the pathology occurred at day 5 post dosing
[10]
  U251 CR (complete response, animals): (0/5 CR)
  U251 T-C: 50 days

## O=P(O)(NCCCl)NCCCl [IPM, isophosphoramide mustard]
[5]
  MX-1 T-C: 2.1 days
[7]
  P388/CPA (% ILS): +85 % ILS
humans
  Dose limiting toxicity in humans: renal tubular necrosis was dose limiting
